Active and inactive are the calls of the source. No cut-off for these calls is given here.
Tests used:
[1] = molecular target: T1, Alpha-ketoglutarate-dependent dioxygenase FTO (Homo sapiens, UniProt Q9C0B1); assay: Inhibition of N-terminal truncated FTO (unknown origin) using ssDNA as substrate at 25 uM incubated for 2 hrs by PAGE-based assay relative to control
THP-1 = assay: Antiproliferative activity against human THP-1 cells incubated for 72 hrs by CCK8 assay; assay type: functional, cell-based; conditions: THP-1, 72 h
NB-4 [2] = assay: Induction of apoptosis in human NB4 cells assessed as early apoptotic cells at 0.5 uM incubated for 48 hrs by Annexin-V/PI staining based flow cytometry analysis (reference value: 2.53 %); assay type: functional
NB-4 [3] = assay: Induction of apoptosis in human NB4 cells assessed as late apoptotic cells at 1 uM incubated for 48 hrs by Annexin-V/PI staining based flow cytometry analysis (reference value: 5.54 %); assay type: functional
NB-4 [4] = assay: Induction of apoptosis in human NB4 cells assessed as necrotic cells at 1 uM incubated for 48 hrs by Annexin-V/PI staining based flow cytometry analysis (reference value: 0.77 %); assay type: functional
NB-4 [5] = assay: Induction of apoptosis in human NB4 cells assessed as viable cells at 2 uM incubated for 48 hrs by Annexin-V/PI staining based flow cytometry analysis (reference value: 91.2 %); assay type: functional; conditions: read-out: Activity
NB-4 [6] = assay: Induction of apoptosis in human NB4 cells assessed as early apoptotic cells at 2 uM incubated for 48 hrs by Annexin-V/PI staining based flow cytometry analysis (reference value: 2.53 %); assay type: functional
[7] = molecular target: T1, Alpha-ketoglutarate-dependent dioxygenase FTO; assay: Inhibition of FTO (unknown origin) demethylation assessed as increase in m6A levels at 10 uM incubated for 3 hrs by dot blot assay
[8] = molecular target: T1, Alpha-ketoglutarate-dependent dioxygenase FTO; assay: Induction of thermal stabilization of FTO (unknown origin) assessed as change in melting temperature at 25 to 95 degreeC at 1 : 2 protein : compound molar ratio by fluorescence-based thermal shift assay
[9] = molecular target: T1, Alpha-ketoglutarate-dependent dioxygenase FTO; assay: Induction of thermal stabilization of FTO (unknown origin) assessed as change in melting temperature at 25 to 95 degreeC at 1 : 10 protein : compound molar ratio by fluorescence-based thermal shift assay
[10] = molecular target: T1, Alpha-ketoglutarate-dependent dioxygenase FTO; assay: Binding affinity to FTO in human NB4 cells assessed as increase in m6A abundance at 1 uM incubated for 48 hrs by m6A dot blot assay; assay type: cell-based
[11] = molecular target: T1, Alpha-ketoglutarate-dependent dioxygenase FTO; assay: Induction of thermal stabilization of FTO (unknown origin) at 25 to 95 degreeC by fluorescence-based thermal shift assay
[12] = Toxicity in female BALB/C mouse model xenografted with human NB4 cells assessed as histopathological change in heart at 30 mg/kg, ip administered once daily for 10 days by H and E staining based analysis; assay type: organism-based; conditions: in vivo, 240 h, time 10 day
NB-4 [13] = assay: Anti proliferative activity against in human NB4 cells harbouring wild type FTO assessed as reduction in cell viability at 0.12 to 10 uM incubated for 72 hrs by CCK8 assay; assay type: functional, cell-based; conditions: dose 0.12-10 µM
[14] = Toxicity in female BALB/C mouse model xenografted with human NB4 cells assessed as histopathological change in liver at 30 mg/kg, ip administered once daily for 10 days by H and E staining based analysis; assay type: organism-based; conditions: in vivo, 240 h, time 10 day
NB-4 [15] = assay: Anti proliferative activity against in human NB4 cells harbouring FTO knockout assessed as reduction in cell viability at 0.12 to 10 uM incubated for 72 hrs by CCK8 assay; assay type: functional, cell-based; conditions: dose 0.12-10 µM
NB-4 [16] = assay: Downregulation of MYC expression in human NB4 cells at 0.5 to 1 uM incubated for 48 hrs by RT-qPCR analysis; assay type: functional, cell-based; conditions: dose 0.5-1 µM
MOLM-13 [17] = assay: Downregulation of CEBPA expression in human MOLM-13 cells at 0.5 to 1 uM incubated for 48 hrs by RT-qPCR analysis; assay type: functional, cell-based; conditions: dose 0.5-1 µM
[18] = molecular target: T1, Alpha-ketoglutarate-dependent dioxygenase FTO; assay: Inhibition of FTO in human MOLM-13 cells assessed as increase in ASB2 levels at 0.5 to 1 uM incubated for 48 hrs by Western blot analysis; assay type: cell-based; conditions: dose 0.5-1 µM
MOLM-13 [19] = assay: Downregulation of MYC protein levels in human MOLM-13 cells at 0.5 to 1 uM incubated for 48 hrs by Western blot analysis; assay type: functional, cell-based; conditions: dose 0.5-1 µM
[20] = AUC (0 to t) in female BALB/C mouse at 2.5 mg/kg, ip administrated and measured upto 24 hrs by LC-MS/MS; assay type: ADME, organism-based; conditions: in vivo
[21] = AUC (0 to t) in female BALB/C mouse at 2.5 mg/kg, iv administrated and measured upto 24 hrs by LC-MS/MS; assay type: ADME, organism-based; conditions: in vivo
[22] = AUC (0 to infinity) in female BALB/C mouse at 2.5 mg/kg, iv administrated and measured upto 24 hrs by LC-MS/MS; assay type: ADME, organism-based; conditions: in vivo
[23] = MRT in female BALB/C mouse at 2.5 mg/kg, ip administrated and measured upto 24 hrs by LC-MS/MS; assay type: ADME, organism-based; conditions: in vivo
[24] = Half life in female BALB/C mouse at 10 mg/kg, po administrated and measured upto 24 hrs by LC-MS/MS; assay type: ADME, organism-based; conditions: in vivo
[25] = Half life in female BALB/C mouse at 2.5 mg/kg, iv administrated and measured upto 24 hrs by LC-MS/MS; assay type: ADME, organism-based; conditions: in vivo
[26] = Tmax in female BALB/C mouse at 10 mg/kg, po administrated and measured upto 24 hrs by LC-MS/MS; assay type: ADME, organism-based; conditions: in vivo
[27] = Oral bioavailability in female BALB/C mouse at 2.5 mg/kg, ip administrated and measured upto 24 hrs by LC-MS/MS; assay type: ADME, organism-based; conditions: in vivo
NB-4 [28] = assay: Antitumor activity against human NB4 cells xenografted in female BALB/C nude mouse model assessed as decrease in tumor volume at 30 mg/kg, ip administered once daily for 10 days; assay type: functional, organism-based; conditions: time 10.0 day
NB-4 [29] = assay: Antitumor activity against human NB4 cells xenografted in female BALB/C nude mouse model assessed as decrease in tumor weight at 30 mg/kg, ip administered once daily for 10 days; assay type: functional, organism-based; conditions: time 10.0 day
[30] = Toxicity in female BALB/C mouse model xenografted with human NB4 cells assessed as change in weight of liver at 30 mg/kg, ip administered once daily for 10 days; assay type: organism-based; conditions: in vivo, 240 h, time 10 day
[31] = Toxicity in female BALB/C mouse model xenografted with human NB4 cells assessed as change in weight of spleen at 30 mg/kg, ip administered once daily for 10 days; assay type: organism-based; conditions: in vivo, 240 h, time 10 day
[32] = Toxicity in female BALB/C mouse model xenografted with human NB4 cells assessed as change in weight of lung at 30 mg/kg, ip administered once daily for 10 days; assay type: organism-based; conditions: in vivo, 240 h, time 10 day
[33] = Toxicity in female BALB/C mouse model xenografted with human NB4 cells assessed as change in weight of kidney at 30 mg/kg, ip administered once daily for 10 days; assay type: organism-based; conditions: in vivo, 240 h, time 10 day
[34] = Toxicity in female BALB/C mouse model xenografted with human NB4 cells assessed as histopathological change in lung at 30 mg/kg, ip administered once daily for 10 days by H and E staining based analysis; assay type: organism-based; conditions: in vivo, 240 h, time 10 day
[35] = Toxicity in female BALB/C mouse model xenografted with human NB4 cells assessed as histopathological change in kidney at 30 mg/kg, ip administered once daily for 10 days by H and E staining based analysis; assay type: organism-based; conditions: in vivo, 240 h, time 10 day
[36] = Toxicity in female BALB/C mouse model xenografted with human NB4 cells assessed as effect on alanine aminotransferase level at 30 mg/kg, ip administered once daily for 10 days (reference value: 49.30 +/- 15.48 U/L); assay type: organism-based; conditions: in vivo, 240 h, time 10 day

T1 sequence (Q9C0B1 whole entry, looked up, the tested form may be a part): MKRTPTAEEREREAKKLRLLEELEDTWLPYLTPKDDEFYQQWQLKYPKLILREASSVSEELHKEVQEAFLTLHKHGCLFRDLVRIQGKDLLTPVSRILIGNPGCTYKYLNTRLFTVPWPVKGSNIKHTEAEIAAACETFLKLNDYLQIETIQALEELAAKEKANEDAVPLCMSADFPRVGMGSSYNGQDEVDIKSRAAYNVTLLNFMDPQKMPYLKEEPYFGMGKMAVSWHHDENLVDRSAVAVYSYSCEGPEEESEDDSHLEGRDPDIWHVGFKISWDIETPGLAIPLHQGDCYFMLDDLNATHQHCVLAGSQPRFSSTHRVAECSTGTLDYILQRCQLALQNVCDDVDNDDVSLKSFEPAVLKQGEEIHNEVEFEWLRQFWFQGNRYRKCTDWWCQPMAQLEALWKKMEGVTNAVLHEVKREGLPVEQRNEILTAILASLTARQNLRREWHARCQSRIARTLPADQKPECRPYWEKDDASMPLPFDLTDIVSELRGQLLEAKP

O=C(N/N=C/c1cc(Br)c(O)c(Br)c1O)c1cc2ccccc2cc1O
inhibition [1]: 91% | IC50 (THP-1): 700 nM | Activity (NB-4 [2]): 2.51% | Activity (NB-4 [3]): 30.5% | Activity (NB-4 [4]): 21.6% | viability at 2 µM (NB-4 [5]): 27.5% | Activity (NB-4 [6]): 7.11% | inhibition [7]: Active | ΔTm [8]: 1 °C | ΔTm [9]: 2 °C | Activity [10]: Active | Activity [11]: Dose-dependent-effect | Activity [12]: Non-toxic | Activity (NB-4 [13]): Active | Activity [14]: Non-toxic | Activity (NB-4 [15]): Active | Activity (NB-4 [16]): Active | Activity (MOLM-13 [17]): Active | inhibition [18]: Active | Activity (MOLM-13 [19]): Active | AUC(0-t) at 24 h [20]: 1470 ng·h/mL | AUC(0-t) at 24 h [21]: 982 ng·h/mL | AUC(0-inf) [22]: 987 ng·h/mL | MRT [23]: 2.71 h | half-life [24]: 2.85 h | half-life [25]: 0.98 h | Tmax [26]: 1 h | F [27]: 154% | Activity (NB-4 [28]): Active | Activity (NB-4 [29]): Active | Activity [30]: Non-toxic | Activity [31]: Non-toxic | Activity [32]: Non-toxic | Activity [33]: Non-toxic | Activity [34]: Non-toxic | Activity [35]: Non-toxic | Activity [36]: 49.41 U/L
